Experimental data as given in patent publication US12383551B2, “Methods and compositions for maintaining opioid efficacy in the treatment of pain” (East Carolina University, priority 2017, dated 2025).

What was measured:
sham or SCI animals = test: Conditioned Place Preference (CPP), addictive potential; settings: for CPP to morphine: added to morphine at either dose (1.0 or 2.5 mg/kg), sham or SCI animals
Procedure: Methods: 55 female, Long-Evans rats were tested for mechanical thresholds prior to receiving a spinal contusion (SCI) or sham surgery. […] Conditioned Place Preference (CPP) to each drug combination was assessed to determine the addictive potential of that specific combination.
Mechanical thresholds were assessed in 3-5 month old female Long-Evans rats before and ˜21 days after a mild, traumatic SCI (contusion model). […] Conditioned place preference was performed under each drug condition (5 days alternating drug/vehicle pairing, with testing on day 6).

SCI animals = test: Mechanical pain thresholds / analgesia in animals with spinal cord injury (contusion model); assay type: in vivo, Long-Evans rats; settings: FIG. 2 Panel B
Procedure: (§1) Methods: 55 female, Long-Evans rats were tested for mechanical thresholds prior to receiving a spinal contusion (SCI) or sham surgery. Mechanical pain thresholds were measured 21-27 days post-surgery under the following conditions: Morphine alone (1.0 or 2.5 mg/kg); Morphine (1.0 or 2.5 mg/kg)+0.1 mg/kg Pramipexole (PRAM; D3R agonist); Morphine (2.5 mg/kg)+0.1 mg/kg SCH23390 (SCH: D1R antagonist); 0.1 mg/kg Pramipexole alone; 0.1 mg/kg SCH23390 alone. Conditioned Place Preference (CPP) to each drug combination was assessed to determine the addictive potential of that specific combination.
(§2) Mechanical thresholds were assessed in 3-5 month old female Long-Evans rats before and ˜21 days after a mild, traumatic SCI (contusion model). Thresholds were re-assessed after i.p. injection of: Morphine 1.0 mg/kg with and without 0.1 mg/kg pramipexole (PRAM) or Morphine 2.5 mg/kg with and without 0.1 mg/kg PRAM. Conditioned place preference was performed under each drug condition (5 days alternating drug/vehicle pairing, with testing on day 6). Western blotting determined expression of D3R, D1R and u-opioid receptor (MOR) in the lumbar spinal cord.

[1] = test system: rat model of chronic neuropathic pain; test: Pain withdrawal responses in a rat model of chronic neuropathic pain (pilot studies); assay type: in vivo; settings: low-dose morphine
sham animals = test: Mechanical pain thresholds / analgesia in sham (healthy control) animals; assay type: in vivo, Long-Evans rats; settings: FIG. 2 Panel A, acute treatment
Procedure: as §1, §2

Row | Structure (SMILES) | CPP to morphine (sham or SCI animals) | analgesic effect after long-term application (animals; FIG. 3, long-term application, 2 weeks) | development of morphine tolerance (animals; parallel preliminary studies) | analgesia (SCI animals) | preference for the drug-paired chamber (sham or SCI animals; FIG. 4) | modulating pain withdrawal responses / opioid efficacy [1] | analgesia (sham animals)
1 | CCCN[C@H]1CCc2nc(N)sc2C1 [PRAM, pramipexole] | Neither PRAM nor SCH exacerbated CPP to morphine | – | – | – | – | – | –
2 | CN1CCc2cc(Cl)c(O)cc2[C@@H](c2ccccc2)C1 [SCH, SCH23390] | Neither PRAM nor SCH exacerbated CPP to morphine | – | – | – | – | – | –
3 | CN1CC[C@]23c4c5ccc(O)c4O[C@H]2[C@@H](O)C=C[C@H]3[C@H]1C5 [morphine] | – | complete loss of analgesic effect after 2 weeks | became tolerant | neither morphine nor PRAM have any analgesic effect | induces preference for the drug-paired chamber | became ineffective | improves analgesia significantly
